Target: T1, human VR1 (Homo sapiens, UniProt Q8NER1)
T1 construct: expressed in transfected cells
Assay: Inhibition of Ca2+ entry in cells caused by proton, in rat glioma (C6BU1) cells stably expressing human VR1 (Fura 2 fluorescence)
Assay type: cell-based
Settings: inhibition of proton-induced Ca2+ entry
Experimental: The assay for evaluation of VR1 inhibition by the inventive compounds will be described below. The assay was intended to evaluate in vitro inhibition of Ca^2+ entry in cells caused by proton, one of the VR1 agonists.
Rat glioma (C6BU1) cells stably expressing human VR1 were suspended in 20 mM MES buffer (at pH 6.8, contg. 20 mM 2-morpholinoethanesulfonate (referred to as MES hereinafter), 115 mM NaCl, 5 mM KCl, 1 mM MgCl2 and 14 mM D-glucose) to make a cell density of 1×10^6 cells/mL. A fluorescent dye, Fura 2-AMsolution (DojindoCorporate, Cat. No. 343-05401) was added to the suspension to make a 5 μM concentration thereof. Further, Pluronic F-127 (Wako Pure Chemical Industries, Ltd., Cat. No. P6866) was added to make a 0.1% content thereof. Then, the suspension was incubated at 37° C. for 30 min. The cells were harvested and washed three times with 20 mM MES buffer. The cells were suspended again to make a cell density of 5×10^5 cells/mL. A 500-μL portion of the suspension was taken with a cuvette (MC MEDICAL, INC., Cat. No. SSR3121), to which 10 μL of 20 mM MES buffer containing 250 mM CaCl2 was added to incorporate Ca^2+ into the cells. At the same time, 5 μL of a test compound solution (in a range of 100 μM to 10 nM in DMSO) was also added to provide a final concentration thereof in a range of 1 μM to 0.1 nM. Alternatively, 5 μL of DMSO was added as control to provide a final concentration of 1% DMSO. The suspension was set in an intracellular ionometer (CAF-110; JASCO) 10 min after those additions. The cells were stimulated with protons by addition of 60 μL of 20 mM MES buffer at pH 1.1 to the suspension to set its pH at 5.5. The activity of the test compound was determined as a difference between the minimum of fluorescence intensity before agonist stimulation and its maximum after the stimulation. The value of IC50 was derived from percentage of inhibition by the test compound compared with the control.
In the tables, the symbol “++” indicates an IC50 value less than 100 nM and the symbol “+” indicates an IC50 value of 100 nM to 1,000 nM inclusive.

T1 sequence (Q8NER1 whole entry): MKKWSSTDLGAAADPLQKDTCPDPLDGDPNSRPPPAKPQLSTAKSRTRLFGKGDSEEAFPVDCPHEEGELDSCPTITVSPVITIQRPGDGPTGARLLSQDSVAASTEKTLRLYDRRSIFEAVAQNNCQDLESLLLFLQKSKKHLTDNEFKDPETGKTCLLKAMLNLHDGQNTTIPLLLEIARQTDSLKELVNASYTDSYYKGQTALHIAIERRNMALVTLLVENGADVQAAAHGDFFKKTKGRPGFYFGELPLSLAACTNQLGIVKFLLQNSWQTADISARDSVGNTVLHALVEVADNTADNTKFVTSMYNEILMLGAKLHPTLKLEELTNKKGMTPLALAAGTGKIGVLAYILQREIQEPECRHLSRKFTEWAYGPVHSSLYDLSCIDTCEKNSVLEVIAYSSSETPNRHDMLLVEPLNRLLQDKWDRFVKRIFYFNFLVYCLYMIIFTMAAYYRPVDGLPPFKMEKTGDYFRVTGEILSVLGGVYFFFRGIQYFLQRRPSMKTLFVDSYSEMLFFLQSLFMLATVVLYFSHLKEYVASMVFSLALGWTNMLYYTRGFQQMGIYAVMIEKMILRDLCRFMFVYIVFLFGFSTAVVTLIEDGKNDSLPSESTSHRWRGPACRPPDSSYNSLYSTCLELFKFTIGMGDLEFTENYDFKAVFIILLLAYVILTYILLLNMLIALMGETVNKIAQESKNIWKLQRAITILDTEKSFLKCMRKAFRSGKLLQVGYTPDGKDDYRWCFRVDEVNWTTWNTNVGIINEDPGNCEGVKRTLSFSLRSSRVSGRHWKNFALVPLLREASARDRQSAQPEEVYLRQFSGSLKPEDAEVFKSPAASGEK

IC50 | SMILES
< 100 nM | CC(O)c1cnc(N2CCOc3c(C(=O)Nc4ccc(C(F)(F)F)cc4)cccc32)c(Cl)c1 (single isomer, unassigned; (+)) [Example 2-12, (+)-N-(4-trifluoromethylphenyl)-4-{3-chloro-5-(1-hydroxyethyl)pyridin-2-yl}-3,4-dihydro-2H-benzo[1,4]oxazine-8-carboxamide]
< 100 nM | CC(O)c1cnc(N2CCOc3c(C(=O)Nc4ccc(OC(F)(F)F)cc4)cccc32)c(Cl)c1 (single isomer, unassigned; (+)) [Example 2-14, (+)-N-(4-trifluoromethoxyphenyl)-4-{3-chloro-5-(1-hydroxyethyl)pyridin-2-yl}-3,4-dihydro-2H-benzo[1,4]oxazine-8-carboxamide]
< 100 nM | CC(O)c1cnc(N2CCOc3c(C(=O)Nc4ccc(C(F)(F)F)cc4)cccc32)c(Cl)c1 (single isomer, unassigned; (-)) [Example 2-13, (−)-N-(4-trifluoromethylphenyl)-4-{3-chloro-5-(1-hydroxyethyl)pyridin-2-yl}-3,4-dihydro-2H-benzo[1,4]oxazine-8-carboxamide]
< 100 nM | CC(O)c1cnc(N2CCOc3c(C(=O)Nc4ccc(OC(F)(F)F)cc4)cccc32)c(Cl)c1 (single isomer, unassigned; (-)) [Example 2-15, (−)-N-(4-trifluoromethoxyphenyl)-4-{3-chloro-5-(1-hydroxyethyl)pyridin-2-yl}-3,4-dihydro-2H-benzo[1,4]oxazine-8-carboxamide]
< 100 nM | CC(C)(C)c1ccc(NC(=O)c2cccc3c2OCCN3c2ncccc2Cl)cc1 [Example 1-001, N-(4-tert-butylphenyl)-4-(3-chloropyridin-2-yl)-3,4-dihydro-2H-benzo[1,4]oxazine-8-carboxamide]
< 100 nM | CC1COc2c(C(=O)Nc3ccc(C(C)(C)C)cc3)cccc2N1c1ncccc1Cl (stereo not shown) [Example 1-003, N-(4-tert-butylphenyl)-4-(3-chloropyridin-2-yl)-3-methyl-3,4-dihydro-2H-benzo[1,4]oxazine-8-carboxamide]
< 100 nM | CN1CCN(c2ncccc2Cl)c2cccc(C(=O)Nc3ccc(C(C)(C)C)cc3)c21 [Example 1-004, N-(4-tert-butylphenyl)-1-(3-chloropyridin-2-yl)-4-methyl-1,2,3,4-tetrahydroquinoxaline-5-carboxamide]
< 100 nM | CC(C)(C)c1ccc(NC(=O)c2cccc3c2OCCCN3c2ncccc2Cl)cc1 [Example 1-005, N-(4-tert-butylphenyl)-9-(3-chloropyridin-2-yl)-6,7,8,9-tetrahydro-5-oxa-9-aza-benzocycloheptene-4-carboxamide]
< 100 nM | O=C(Nc1ccc(Cl)cc1)c1cccc2c1OCCN2c1ncccc1Cl [Example 1-006]
< 100 nM | CC(C)Oc1ccc(NC(=O)c2cccc3c2OCCN3c2ncccc2Cl)cc1 [Example 1-007]
< 100 nM | Cc1ccc(NC(=O)c2cccc3c2OCCN3c2ncccc2Cl)cc1 [Example 1-009]
< 100 nM | CC(C)COc1ccc(NC(=O)c2cccc3c2OCCN3c2ncccc2Cl)cc1 [Example 1-011]
< 100 nM | CC(C)(C)c1ccc(NC(=O)c2cccc3c2OCCN3c2ccccn2)cc1 [Example 1-016]
< 100 nM | CC(C)(C)c1ccc(NC(=O)c2cccc3c2OCCN3c2ncccc2C(F)(F)F)cc1 [Example 1-017]
100 to 1000 nM | CC1(C)CN(c2ncccc2Cl)c2cccc(C(=O)Nc3ccc(C(C)(C)C)cc3)c2O1 [Example 1-018]
100 to 1000 nM | CC1CN(c2ncccc2Cl)c2cccc(C(=O)Nc3ccc(C(C)(C)C)cc3)c2O1 (stereo not shown) [Example 1-019]
< 100 nM | CC(C)(C)c1ccc(NC(=O)c2cc(Cl)cc3c2OCCN3c2ncccc2Cl)cc1 [Example 1-020]
< 100 nM | O=C(Nc1ccc(OC(F)(F)F)cc1)c1cccc2c1OCCN2c1ncccc1Cl [Example 1-022]
100 to 1000 nM | COc1ccc(NC(=O)c2cccc3c2OCCN3c2ncccc2Cl)cc1 [Example 1-023]
< 100 nM | O=C(Nc1ccc(Cl)c(C(F)(F)F)c1)c1cccc2c1OCCN2c1ncccc1Cl [Example 1-025]
100 to 1000 nM | O=C(Nc1ccc(F)cc1)c1cccc2c1OCCN2c1ncccc1Cl [Example 1-026]
< 100 nM | O=C(Nc1cccc(C(F)(F)F)c1)c1cccc2c1OCCN2c1ncccc1Cl [Example 1-027]
< 100 nM | O=C(Nc1ccc(C(F)(F)F)cn1)c1cccc2c1OCCN2c1ncccc1Cl [Example 1-029]
< 100 nM | O=C(Nc1ccc(C(F)(F)F)nc1)c1cccc2c1OCCN2c1ncccc1Cl [Example 1-030]
< 100 nM | CC(C)c1ccc(NC(=O)c2cccc3c2OCCN3c2ncccc2Cl)cc1 [Example 1-031]
100 to 1000 nM | O=C(Nc1ccc2cccnc2c1)c1cccc2c1OCCN2c1ncccc1Cl [Example 1-032]

IC50 | SMILES
< 100 nM | CN1CCCc2ccc(NC(=O)c3cccc4c3OCCN4c3ncccc3Cl)cc21 [Example 1-033]
< 100 nM | COC(=O)c1ccc(NC(=O)c2cccc3c2OCCN3c2ncccc2Cl)cc1 [Example 1-034, 4-(3-chloropyridin-2-yl)-N-(methoxycarbonylphenyl)-3,4-dihydro-2H-benzo[1,4]oxazine-8-carboxamide]
100 to 1000 nM | CC(=O)c1ccc(NC(=O)c2cccc3c2OCCN3c2ncccc2Cl)cc1 [Example 1-039, N-(4-acetylphenyl)-4-(3-chloropyridin-2-yl)-3,4-dihydro-2H-benzo[1,4]oxazine-8-carboxamide]
100 to 1000 nM | CCC(C)(O)c1ccc(NC(=O)c2cccc3c2OCCN3c2ncccc2Cl)cc1 (stereo not shown) [Example 1-041, 4-(3-chloropyridin-2-yl)-N-[4-(1-hydroxy-1-methyl)propyl]phenyl-3,4-dihydro-2H-benzo[1,4]oxazine-8-carboxamide]
100 to 1000 nM | CC(C)(C)ON1CCC(NC(=O)c2cccc3c2OCCN3c2ncccc2Cl)CC1 [Example 1-043]
< 100 nM | CC(C)Oc1cccc(NC(=O)c2cccc3c2OCCN3c2ncccc2Cl)c1 [Example 1-044]
< 100 nM | CC(C)COc1cccc(NC(=O)c2cccc3c2OCCN3c2ncccc2Cl)c1 [Example 1-045]
< 100 nM | Cc1cccnc1N1CCOc2c(C(=O)Nc3ccc(C(C)(C)C)cc3)cccc21 [Example 1-047]
< 100 nM | O=C(Nc1ccc(N2CCCCC2)cc1)c1cccc2c1OCCN2c1ncccc1Cl [Example 1-048]
100 to 1000 nM | CN(C)c1ccc(NC(=O)c2cccc3c2OCCN3c2ncccc2Cl)cc1 [Example 1-049]
100 to 1000 nM | O=C(Nc1ccc(N2CCOCC2)cc1)c1cccc2c1OCCN2c1ncccc1Cl [Example 1-050]
< 100 nM | CC(C)Oc1ccc(NC(=O)c2cccc3c2OCCN3c2ncccc2Cl)c(F)c1 [Example 1-052]
< 100 nM | O=C(Nc1ccc(F)c(C(F)(F)F)c1)c1cccc2c1OCCN2c1ncccc1Cl [Example 1-053]
< 100 nM | CN(C)c1ccc(NC(=O)c2cccc3c2OCCN3c2ncccc2Cl)cc1C(F)(F)F [Example 1-054]
< 100 nM | CC(C)Oc1ccc(NC(=O)c2cccc3c2OCCN3c2ncccc2Cl)cc1C(F)(F)F [Example 1-055]
< 100 nM | COc1ccc(NC(=O)c2cccc3c2OCCN3c2ncccc2Cl)cc1C(F)(F)F [Example 1-056]
< 100 nM | CC(C)COc1ccc(NC(=O)c2cccc3c2OCCN3c2ncccc2Cl)cc1C(F)(F)F [Example 1-057]
100 to 1000 nM | Cc1ccnc(N2CCOc3c(C(=O)Nc4ccc(C(C)(C)C)cc4)cccc32)c1 [Example 1-058, N-(4-tert-butylphenyl)-4-(4-methylpyridin-2-yl)-3,4-dihydro-2H-benzo[1,4]oxazine-8-carboxamide]
100 to 1000 nM | Cc1cccc(N2CCOc3c(C(=O)Nc4ccc(C(C)(C)C)cc4)cccc32)n1 [Example 1-059]
< 100 nM | Cc1ccc(N2CCOc3c(C(=O)Nc4ccc(C(C)(C)C)cc4)cccc32)nc1 [Example 1-060]
100 to 1000 nM | CC(C)(C)c1ccc(NC(=O)c2cccc3c2OCCN3c2cccnc2)cc1 [Example 1-061]
< 100 nM | Cc1ccc(N2CCOc3c(C(=O)Nc4ccc(C#N)cc4)cccc32)nc1 [Example 1-062]
< 100 nM | Cc1ccc(N2CCOc3c(C(=O)Nc4ccc(Cl)c(N)c4)cccc32)nc1 [Example 1-063]
< 100 nM | CCOC1CCN(c2ccc(NC(=O)c3cccc4c3OCCN4c3ccc(C)cn3)cc2F)CC1 [Example 1-068]
< 100 nM | Cc1ccc(N2CCOc3c(C(=O)Nc4ccc(N5CCC(OC(C)C)CC5)c(F)c4)cccc32)nc1 [Example 1-069]
< 100 nM | COC1CCCN(c2ccc(NC(=O)c3cccc4c3OCCN4c3ccc(C)cn3)cc2F)C1 (stereo not shown) [Example 1-070]
